Measured values reported in ChEMBL document CHEMBL1914445 (Eur J Med Chem, 2011).

Legend:
Acetylcholinesterase [1] = molecular target: T1, Acetylcholinesterase (Homo sapiens, UniProt P22303); experiment: Inhibition of human recombinant AChE using acetylthiocholine as substrate by Ellman's assay
SH-SY5Y [2] = experiment: Neuroprotective activity against amyloid beta(25-32)-induced toxicity in human SH-SY5Y cells assessed as reduction in cell viability at 1 uM preincubated for 24 hrs measured after 24 hrs by MTT assay; format: functional
SH-SY5Y [3] = experiment: Neuroprotective activity against amyloid beta(25-32)-induced toxicity in human SH-SY5Y cells assessed as reduction in cell viability at 3 uM preincubated for 24 hrs measured after 24 hrs by MTT assay; format: functional
Cholinesterase [4] = molecular target: T2, Cholinesterase (Homo sapiens, UniProt P06276); experiment: Inhibition of human serum BuChE using butyrylthiocholine as substrate by Ellman's assay
T2 sequence (P06276 whole entry): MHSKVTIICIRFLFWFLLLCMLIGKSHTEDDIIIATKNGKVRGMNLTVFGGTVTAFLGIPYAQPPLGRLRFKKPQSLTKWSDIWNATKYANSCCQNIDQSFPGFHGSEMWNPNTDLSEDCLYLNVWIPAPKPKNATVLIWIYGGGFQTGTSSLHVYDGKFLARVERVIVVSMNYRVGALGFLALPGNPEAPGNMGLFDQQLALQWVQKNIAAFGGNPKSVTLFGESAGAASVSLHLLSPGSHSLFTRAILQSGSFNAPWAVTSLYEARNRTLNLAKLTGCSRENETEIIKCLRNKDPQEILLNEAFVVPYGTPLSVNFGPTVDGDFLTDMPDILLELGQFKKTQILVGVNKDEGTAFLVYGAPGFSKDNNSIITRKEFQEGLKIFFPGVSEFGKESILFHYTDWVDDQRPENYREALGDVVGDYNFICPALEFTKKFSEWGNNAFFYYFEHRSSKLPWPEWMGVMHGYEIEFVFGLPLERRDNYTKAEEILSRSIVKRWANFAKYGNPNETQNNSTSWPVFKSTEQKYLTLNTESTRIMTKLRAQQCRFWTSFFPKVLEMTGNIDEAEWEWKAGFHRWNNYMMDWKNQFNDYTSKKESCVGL

Homo sapiens = organism: Homo sapiens; experiment: Selectivity ratio of IC50 for human […]
Cholinesterase [5] = molecular target: T3, Cholinesterase (Equus caballus, UniProt P81908); experiment: Inhibition of equine serum BuChE using butyrylthiocholine iodide as substrate preincubated for 10 mins before substrate addition by Ellman's method
T3 sequence (P81908 whole entry): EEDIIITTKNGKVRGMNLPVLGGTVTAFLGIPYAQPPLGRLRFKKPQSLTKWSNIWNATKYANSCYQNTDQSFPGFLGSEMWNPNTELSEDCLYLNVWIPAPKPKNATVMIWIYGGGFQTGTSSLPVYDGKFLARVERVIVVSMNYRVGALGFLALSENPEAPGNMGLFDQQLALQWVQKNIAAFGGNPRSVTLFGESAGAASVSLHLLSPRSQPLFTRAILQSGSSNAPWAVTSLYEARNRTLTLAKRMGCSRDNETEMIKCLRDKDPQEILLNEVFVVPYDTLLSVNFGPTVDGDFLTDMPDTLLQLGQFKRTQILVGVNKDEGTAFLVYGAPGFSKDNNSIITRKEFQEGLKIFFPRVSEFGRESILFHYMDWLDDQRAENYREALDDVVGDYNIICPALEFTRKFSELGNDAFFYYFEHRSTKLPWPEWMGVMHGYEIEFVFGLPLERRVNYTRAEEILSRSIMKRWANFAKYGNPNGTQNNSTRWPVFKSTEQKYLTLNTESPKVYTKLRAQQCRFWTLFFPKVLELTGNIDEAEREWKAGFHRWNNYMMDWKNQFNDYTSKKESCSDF

Acetylcholinesterase [6] = molecular target: T4, Acetylcholinesterase (Electrophorus electricus, UniProt O42275); experiment: Mixed-type inhibition of Electrophorus electricus AChE assessed as hydrolysis of acetylthiocholine by Lineweaver-Burk plot analysis
T4 sequence (O42275 whole entry): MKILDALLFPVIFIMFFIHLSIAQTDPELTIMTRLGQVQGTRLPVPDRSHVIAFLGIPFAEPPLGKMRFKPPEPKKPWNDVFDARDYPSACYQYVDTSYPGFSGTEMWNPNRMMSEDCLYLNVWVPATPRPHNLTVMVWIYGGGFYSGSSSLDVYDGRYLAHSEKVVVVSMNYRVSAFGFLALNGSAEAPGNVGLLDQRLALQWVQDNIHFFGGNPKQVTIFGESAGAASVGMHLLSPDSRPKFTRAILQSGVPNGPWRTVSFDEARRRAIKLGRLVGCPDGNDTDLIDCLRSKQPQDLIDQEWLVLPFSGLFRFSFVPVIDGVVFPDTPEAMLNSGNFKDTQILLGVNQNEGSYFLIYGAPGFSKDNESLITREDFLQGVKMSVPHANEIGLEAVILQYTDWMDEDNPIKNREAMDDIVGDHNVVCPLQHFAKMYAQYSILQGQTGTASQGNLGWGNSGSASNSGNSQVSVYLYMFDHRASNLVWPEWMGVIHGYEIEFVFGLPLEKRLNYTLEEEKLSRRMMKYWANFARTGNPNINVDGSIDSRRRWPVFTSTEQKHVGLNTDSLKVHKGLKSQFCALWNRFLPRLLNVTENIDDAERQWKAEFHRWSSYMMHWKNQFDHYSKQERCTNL

Acetylcholinesterase [7] = molecular target: T4, Acetylcholinesterase
Description: Inhibition of Electrophorus electricus AChE using acetylthiocholine iodide as substrate preincubated for 10 mins before substrate addition by Ellman's method

SH-SY5Y [8] = experiment: Neuroprotective activity against amyloid beta(25-32)-induced toxicity in human SH-SY5Y cells assessed as reduction in cell viability at 0.3 uM preincubated for 24 hrs measured after 24 hrs by MTT assay; format: functional
Acetylcholinesterase [9] = molecular target: T4, Acetylcholinesterase; remark: listed apart in the source
Description: Inhibition of Electrophorus electricus AChE using acetylthiocholine iodide as substrate preincubated for 10 mins before substrate addition by Ellman's method in presence of bovine serum albumin

Cholinesterase [10] = molecular target: T3, Cholinesterase
Description: Inhibition of equine serum BuChE using butyrylthiocholine iodide as substrate preincubated for 10 mins before substrate addition by Ellman's method in presence of bovine serum albumin

Cholinesterase [11] = molecular target: T2, Cholinesterase; experiment: Inhibition of human serum BuChE using butyrylthiocholine as substrate by Ellman's assay in presence of bovine serum albumin
Acetylcholinesterase [12] = molecular target: T1, Acetylcholinesterase; experiment: Inhibition of human recombinant AChE using acetylthiocholine as substrate by Ellman's assay in presence of bovine serum albumin

T1 sequence (P22303 whole entry): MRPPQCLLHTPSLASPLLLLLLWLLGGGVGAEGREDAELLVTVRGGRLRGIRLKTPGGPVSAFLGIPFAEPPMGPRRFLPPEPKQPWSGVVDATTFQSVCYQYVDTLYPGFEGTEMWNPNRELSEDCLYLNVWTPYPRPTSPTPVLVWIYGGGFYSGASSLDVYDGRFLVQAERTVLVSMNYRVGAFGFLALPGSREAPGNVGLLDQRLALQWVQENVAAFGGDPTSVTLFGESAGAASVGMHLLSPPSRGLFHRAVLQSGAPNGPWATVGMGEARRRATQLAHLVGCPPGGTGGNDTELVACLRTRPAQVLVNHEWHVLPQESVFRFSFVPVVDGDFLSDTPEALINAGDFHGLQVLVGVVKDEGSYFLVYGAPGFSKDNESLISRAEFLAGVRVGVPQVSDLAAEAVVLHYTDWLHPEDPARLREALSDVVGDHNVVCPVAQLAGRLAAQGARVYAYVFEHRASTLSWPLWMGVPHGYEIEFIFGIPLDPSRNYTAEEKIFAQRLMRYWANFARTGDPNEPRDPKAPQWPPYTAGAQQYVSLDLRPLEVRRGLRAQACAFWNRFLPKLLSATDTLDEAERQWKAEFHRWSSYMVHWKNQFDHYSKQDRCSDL

Row | Compound | IC50 (Acetylcholinesterase [1]) [µM] | IC50 (Cholinesterase [4]) [µM] | IC50 (Cholinesterase [5]) [µM] | IC50 (Acetylcholinesterase [7]) [µM] | IC50 (Acetylcholinesterase [9]) [µM] | IC50 (Cholinesterase [10]) [µM] | other results
1 | Nc1c2c(nc3c1cc(-c1ccccc1)n3-c1ccccc1)CCCC2 | 45.5 | 8.57 | 0.074 | 0.61 |  |  | Activity (SH-SY5Y [2]): 19%; Activity (SH-SY5Y [3]): 23.7%; Ratio IC50 (Homo sapiens): 5; Ki (Acetylcholinesterase [6]): 0.621 µM; Activity (SH-SY5Y [8]): 11.4%
2 | Nc1c2c(nc3oc(-c4ccccc4)cc13)CCCCC2 |  |  | 6 | > 100 |  |  | 
3 | Nc1c2c(nc3oc(-c4ccc(Cl)cc4)cc13)CCCC2 | > 100 | 26.1 | 23 | > 100 |  |  | 
4 | Nc1c2c(nc3oc(-c4ccccc4)cc13)CCCC2 | > 100 | 3.78 | 3.6 | > 100 |  |  | 
5 | Cc1ccc(-c2cc3c(N)c4c(nc3o2)CCCCC4)cc1 |  |  |  |  | > 30 | 13 | 
6 | N#Cc1c(-c2ccc(Cl)cc2)oc2nc3c(c(N)c12)CCCC3 |  |  |  |  | > 100 | 32.4 | IC50 (Cholinesterase [11]): > 100 µM; IC50 (Acetylcholinesterase [12]): > 100 µM
7 | Nc1c2c(nc3c1cc(-c1ccc(Cl)cc1)n3-c1ccccc1)CCCC2 |  |  |  |  | 24 | 15 | 
8 | Cc1ccc(-c2cc3c(N)c4c(nc3o2)CCCC4)cc1 | > 100 | 119 | 2.9 | > 100 |  |  | 
9 | Nc1c2c(nc3c1cc(-c1ccccc1)n3-c1ccccc1)CCCCC2 |  |  |  |  | > 30 | 1.1 | 
10 | Nc1c2c(nc3oc(-c4ccc(Cl)cc4)cc13)CCCCC2 |  |  |  |  | > 100 | 43 | 
